What was measured:
Type in all cases: in vivo
[1] = test system: Heliothis armigera caterpillars; settings: found effect, dipped soya bean shoots (Glycine max)
Procedure: (§1) • Solvent: 7 parts by weight of dimethylformamide • Emulsifier: 2 parts by weight of alkylaryl polyglycol ether
Soya bean shoots (Glycine max) are treated by being dipped into the active compound preparation of the desired concentration and are populated with Heliothis armigera caterpillars while the leaves are still moist.
After the desired period, the destruction in % is determined. 100% means that all of the caterpillars have been destroyed; 0% means that no caterpillars have been destroyed. The destruction values determined are calculated using Carpenter's formula (see previous page).

[2] = test system: army worm caterpillars (Spodoptera frugiperda); settings: found effect, dipped cabbage leaves
Procedure: (§2) Spodoptera frugiperda Test
• Solvent: 7 parts by weight of dimethylformamide • Emulsifier: 2 parts by weight of alkylaryl polyglycol ether.
(§3) Cabbage leaves (Brassica oleracea) are treated by being dipped into the active compound preparation of the desired concentration and are populated with army worm caterpillars (Spodoptera frugiperda) while the leaves are still moist.
(§4) After the desired period, the destruction in % is determined. 100% means that all of the caterpillars have been destroyed; 0% means that no caterpillars have been destroyed. The destruction values determined are calculated using Carpenter's formula.

[3] = test system: diamond-back moth caterpillars (Plutella xylostella, sensitive strain); assay: Plutella test, sensitive strain (Example C); settings: found effect, dipped cabbage leaves
Procedure: Plutella Test, Sensitive Strain
as §1
Cabbage leaves (Brassica oleracea) are treated by being dipped into the active compound preparation of the desired concentration and are populated with diamond-back moth caterpillars (Plutella xylostella, sensitive strain) while the leaves are still moist.
as §4

[4] = test system: diamond-back moth caterpillars (Plutella xylostella, resistant strain); assay: Plutella test, resistant strain (Example D); settings: found effect, dipped cabbage leaves
Procedure: Plutella Test, Resistant Strain
as §1
Cabbage leaves (Brassica oleracea) are treated by being dipped into the active compound preparation of the desired concentration and are populated with diamond-back moth caterpillars (Plutella xylostella, resistant strain) while the leaves are still moist.
as §4

[5] = test system: mustard beetle larvae (Phaedon cochleariae); settings: found effect, dipped cabbage leaves (Brassica oleracea)
Procedure: as §1
(§5) After the desired period, the destruction in % is determined. 100% means that all of the beetle larvae have been destroyed; 0% means that no beetle larvae have been destroyed. The destruction values determined are calculated using Carpenter's formula.

[6] = test system: mustard beetle larvae (Phaedon cochleariae); assay: Phaedon larvae test (Example F); settings: found effect, dipped cabbage leaves
Procedure: as §1, §5

[7] = test system: army worm caterpillars (Spodoptera frugiperda); assay: Spodoptera frugiperda test (Example G); settings: found effect, dipped cabbage leaves
Procedure: as §2, §1, §3, §4

Compound	LC50 after 6 days [1]	LC50 after 6 days [2]	LC95 after 6 days [3]	LC95 after 6 days [4]	LC50 after 6 days [5]	LC95 after 6 days [6]	LC95 after 6 days [7]
emamectin benzoate	0.007 ppm	0.0029 ppm	0.0009 ppm	0.0033 ppm	0.026 ppm	–	–
CC[C@H](C)[C@H]1O[C@]2(C=C[C@@H]1C)C[C@@H]1C[C@@H](C/C=C(\C)[C@@H](O[C@H]3C[C@H](OC)[C@@H](O[C@H]4C[C@H](OC)[C@@H](O)[C@H](C)O4)[C@H](C)O3)[C@@H](C)/C=C/C=C3\CO[C@@H]4[C@H](O)C(C)=C[C@@H](C(=O)O1)[C@]34O)O2 [Avermectin, abamectin]	–	–	–	–	–	0.345 ppm	30.104 ppm

Reference: patent US20050130913A1, “Synergistic insecticidal mixtures” (priority 2002, published 2005)
